Measured values taken from patent US6559101B2, “N- (5, 7-dimethoxy [1, 2, 4] triazolo [1, 5-a] pyrimidin-2-yl) arylsulfonamide compounds and their use as herbicides” (Dow AgroSciences LLC, priority 2000, dated 2003).

Assays:
Type in all cases: in vivo
[1] = test system: morningglory (Ipomoea hederacea); assay: Preemergence herbicidal activity; settings: scored after 3 weeks, 0 no injury, 100 complete kill or no germination
Outline: (§1)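 Herbicide applied to soil before emergence at a maximum of 4.48 kg/ha, formulated from an acetone:DMSO (97:3) stock in water with Tween 155 surfactant. Damage was estimated visually on a 0-100 percent scale three weeks later, relative to untreated pots.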

[2] = test system: wild oats (Avena fatua); assay: Preemergence herbicidal activity; settings: scored after 3 weeks, 0 no injury, 100 complete kill or no germination
Outline: as §1

[3] = test system: barnyardgrass (Echinochloa crus-galli); assay: Preemergence herbicidal activity; settings: scored after 3 weeks, 0 no injury, 100 complete kill or no germination
Outline: as §1

[4] = test system: velvetleaf (Abutilion theophrasti); assay: Preemergence herbicidal activity; settings: scored after 3 weeks, 0 no injury, 100 complete kill or no germination
Outline: as §1

[5] = test system: crabgrass (Digitaria sanguinalis); assay: Preemergence herbicidal activity; settings: scored after 3 weeks, 0 no injury, 100 complete kill or no germination
Outline: as §1

[6] = test system: pigweed (Amaranthus retroflexus); assay: Preemergence herbicidal activity; settings: scored after 3 weeks, 0 no injury, 100 complete kill or no germination
Outline: as §1

[7] = test system: blackgrass (Alopecurus myosuroides); assay: Preemergence herbicidal activity; settings: scored after 3 weeks, 0 no injury, 100 complete kill or no germination
Outline: as §1

[8] = test system: Rox orange sorghum (Sorghum bicolor); assay: Preemergence herbicidal activity; settings: scored after 3 weeks, 0 no injury, 100 complete kill or no germination
Outline: as §1

[9] = test system: lambsquarters (Chenopodium album); assay: Preemergence herbicidal activity; settings: scored after 3 weeks, 0 no injury, 100 complete kill or no germination
Outline: as §1

[10] = test system: giant foxtail (Setaria faberi); assay: Preemergence herbicidal activity; settings: scored after 3 weeks, 0 no injury, 100 complete kill or no germination
Outline: as §1

[11] = test system: wild poinsettia (Euphorbia heterophylla); assay: Preemergence herbicidal activity; settings: scored after 3 weeks, 0 no injury, 100 complete kill or no germination
Outline: as §1

[12] = test system: cocklebur (Xanthium strumarium); assay: Preemergence herbicidal activity; settings: scored after 3 weeks, 0 no injury, 100 complete kill or no germination
Outline: as §1

[13] = test system: morningglory (Ipomoea hederacea); assay: Postemergence herbicidal activity; settings: scored after 2 weeks, 0 no injury, 100 complete kill
Outline: (§2)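 Visual injury rating, 0 (none) to 100% (complete kill), 2 weeks after postemergence spray versus untreated controls. Plants treated at 1st–2nd true leaf; spray rate 1 ppm ≈ 1 g/ha. Sub-irrigated after treatment to prevent wash-off.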

[14] = test system: wild oats (Avena fatua); assay: Postemergence herbicidal activity; settings: scored after 2 weeks, 0 no injury, 100 complete kill
Outline: as §2

[15] = test system: velvetleaf (Abutilion theophrasti); assay: Postemergence herbicidal activity; settings: scored after 2 weeks, 0 no injury, 100 complete kill
Outline: as §2

[16] = test system: chickweed (Stellaria media); assay: Postemergence herbicidal activity; settings: scored after 2 weeks, 0 no injury, 100 complete kill
Outline: as §2

[17] = test system: pigweed (Amaranthus retroflexus); assay: Postemergence herbicidal activity; settings: scored after 2 weeks, 0 no injury, 100 complete kill
Outline: as §2

[18] = test system: blackgrass (Alopecurus myosuroides); assay: Postemergence herbicidal activity; settings: scored after 2 weeks, 0 no injury, 100 complete kill
Outline: as §2

[19] = test system: Rox orange sorghum (Sorghum bicolor); assay: Postemergence herbicidal activity; settings: scored after 2 weeks, 0 no injury, 100 complete kill
Outline: as §2

[20] = test system: lambsquarters (Chenopodium album); assay: Postemergence herbicidal activity; settings: scored after 2 weeks, 0 no injury, 100 complete kill
Outline: as §2

[21] = test system: wild buckwheat (Polygonum convolvulus); assay: Postemergence herbicidal activity; settings: scored after 2 weeks, 0 no injury, 100 complete kill
Outline: as §2

[22] = test system: viola (Viola tricolor); assay: Postemergence herbicidal activity; settings: scored after 2 weeks, 0 no injury, 100 complete kill
Outline: as §2

[23] = test system: giant foxtail (Setaria faberi); assay: Postemergence herbicidal activity; settings: scored after 2 weeks, 0 no injury, 100 complete kill
Outline: as §2

[24] = test system: cocklebur (Xanthium strumarium); assay: Postemergence herbicidal activity; settings: scored after 2 weeks, 0 no injury, 100 complete kill
Outline: as §2

COc1cc(OC)n2nc(NS(=O)(=O)c3c(OCC(F)(F)F)cccc3C(F)(F)F)nc2n1 [Compound 12]
Preemergence herbicidal activity IPOHE ([1]; 17.5 g/Ha): 90% | Preemergence herbicidal activity AVEFA ([2]; 17.5 g/Ha): 30% | Preemergence herbicidal activity ECHCG ([3]; 17.5 g/Ha): 100% | Preemergence herbicidal activity ABUTH ([4]; 17.5 g/Ha): 70% | Preemergence herbicidal activity DIGSA ([5]; 17.5 g/Ha): 80% | Preemergence herbicidal activity AMARE ([6]; 17.5 g/Ha): 98% | Preemergence herbicidal activity ALOMY ([7]; 17.5 g/Ha): 70% | Preemergence herbicidal activity SORBI ([8]; 17.5 g/Ha): 98% | Preemergence herbicidal activity CHEAL ([9]; 17.5 g/Ha): 100% | Preemergence herbicidal activity SETFA ([10]; 17.5 g/Ha): 90% | Preemergence herbicidal activity EPHHL ([11]; 17.5 g/Ha): 90% | Preemergence herbicidal activity XANST ([12]; 17.5 g/Ha): 80% | Postemergence herbicidal activity IPOHE ([13]; 62.5 ppm): 98% | Postemergence herbicidal activity AVEFA ([14]; 62.5 ppm): 70% | Postemergence herbicidal activity ABUTH ([15]; 62.5 ppm): 98% | Postemergence herbicidal activity STEME ([16]; 62.5 ppm): 90% | Postemergence herbicidal activity AMARE ([17]; 62.5 ppm): 100% | Postemergence herbicidal activity ALOMY ([18]; 62.5 ppm): 60% | Postemergence herbicidal activity SORBI ([19]; 62.5 ppm): 90% | Postemergence herbicidal activity CHEAL ([20]; 62.5 ppm): 100% | Postemergence herbicidal activity POLCO ([21]; 62.5 ppm): 98% | Postemergence herbicidal activity VIOTR ([22]; 62.5 ppm): 100% | Postemergence herbicidal activity SETFA ([23]; 62.5 ppm): 98% | Postemergence herbicidal activity XANST ([24]; 62.5 ppm): 100%

COc1cc(OC)n2nc(NS(=O)(=O)c3cc(Cl)ccc3OCCF)nc2n1 [Compound 13]
Preemergence herbicidal activity IPOHE ([1]; 35 g/Ha): 50% | Preemergence herbicidal activity AVEFA ([2]; 35 g/Ha): 85% | Preemergence herbicidal activity ECHCG ([3]; 35 g/Ha): 80% | Preemergence herbicidal activity ABUTH ([4]; 35 g/Ha): 60% | Preemergence herbicidal activity DIGSA ([5]; 35 g/Ha): 100% | Preemergence herbicidal activity AMARE ([6]; 35 g/Ha): 95% | Preemergence herbicidal activity ALOMY ([7]; 35 g/Ha): 95% | Preemergence herbicidal activity SORBI ([8]; 35 g/Ha): 95% | Preemergence herbicidal activity CHEAL ([9]; 35 g/Ha): 95% | Preemergence herbicidal activity SETFA ([10]; 35 g/Ha): 95% | Preemergence herbicidal activity EPHHL ([11]; 35 g/Ha): 50% | Preemergence herbicidal activity XANST ([12]; 35 g/Ha): 50% | Postemergence herbicidal activity IPOHE ([13]; 31.3 ppm): 70% | Postemergence herbicidal activity AVEFA ([14]; 31.3 ppm): 75% | Postemergence herbicidal activity ABUTH ([15]; 31.3 ppm): 70% | Postemergence herbicidal activity STEME ([16]; 31.3 ppm): 85% | Postemergence herbicidal activity AMARE ([17]; 31.3 ppm): 95% | Postemergence herbicidal activity ALOMY ([18]; 31.3 ppm): 85% | Postemergence herbicidal activity SORBI ([19]; 31.3 ppm): 90% | Postemergence herbicidal activity CHEAL ([20]; 31.3 ppm): 70% | Postemergence herbicidal activity POLCO ([21]; 31.3 ppm): 80% | Postemergence herbicidal activity VIOTR ([22]; 31.3 ppm): 80% | Postemergence herbicidal activity SETFA ([23]; 31.3 ppm): 90% | Postemergence herbicidal activity XANST ([24]; 31.3 ppm): 90%

COc1cc(OC)n2nc(NS(=O)(=O)c3c(OC(C)C)cccc3C(F)(F)F)nc2n1 [Compound 11]
Preemergence herbicidal activity IPOHE ([1]; 17.5 g/Ha): 98% | Preemergence herbicidal activity AVEFA ([2]; 17.5 g/Ha): 60% | Preemergence herbicidal activity ECHCG ([3]; 17.5 g/Ha): 100% | Preemergence herbicidal activity ABUTH ([4]; 17.5 g/Ha): 100% | Preemergence herbicidal activity DIGSA ([5]; 17.5 g/Ha): 80% | Preemergence herbicidal activity AMARE ([6]; 17.5 g/Ha): 100% | Preemergence herbicidal activity ALOMY ([7]; 17.5 g/Ha): 100% | Preemergence herbicidal activity SORBI ([8]; 17.5 g/Ha): 90% | Preemergence herbicidal activity CHEAL ([9]; 17.5 g/Ha): 100% | Preemergence herbicidal activity SETFA ([10]; 17.5 g/Ha): 100% | Preemergence herbicidal activity EPHHL ([11]; 17.5 g/Ha): 90% | Preemergence herbicidal activity XANST ([12]; 17.5 g/Ha): 90% | Postemergence herbicidal activity IPOHE ([13]; 62.5 ppm): 80% | Postemergence herbicidal activity AVEFA ([14]; 62.5 ppm): 30% | Postemergence herbicidal activity ABUTH ([15]; 62.5 ppm): 100% | Postemergence herbicidal activity STEME ([16]; 62.5 ppm): 95% | Postemergence herbicidal activity AMARE ([17]; 62.5 ppm): 100% | Postemergence herbicidal activity ALOMY ([18]; 62.5 ppm): 60% | Postemergence herbicidal activity SORBI ([19]; 62.5 ppm): 50% | Postemergence herbicidal activity CHEAL ([20]; 62.5 ppm): 100% | Postemergence herbicidal activity POLCO ([21]; 62.5 ppm): 100% | Postemergence herbicidal activity VIOTR ([22]; 62.5 ppm): 90% | Postemergence herbicidal activity SETFA ([23]; 62.5 ppm): 100% | Postemergence herbicidal activity XANST ([24]; 62.5 ppm): 100%

CCOc1nccc(C(F)(F)F)c1S(=O)(=O)Nc1nc2nc(OC)cc(OC)n2n1 [Compound 19]
Preemergence herbicidal activity IPOHE ([1]; 35 g/Ha): 50% | Preemergence herbicidal activity AVEFA ([2]; 35 g/Ha): 60% | Preemergence herbicidal activity ECHCG ([3]; 35 g/Ha): 70% | Preemergence herbicidal activity ABUTH ([4]; 35 g/Ha): 80% | Preemergence herbicidal activity DIGSA ([5]; 35 g/Ha): 80% | Preemergence herbicidal activity AMARE ([6]; 35 g/Ha): 100% | Preemergence herbicidal activity ALOMY ([7]; 35 g/Ha): 100% | Preemergence herbicidal activity SORBI ([8]; 35 g/Ha): 60% | Preemergence herbicidal activity CHEAL ([9]; 35 g/Ha): 100% | Preemergence herbicidal activity SETFA ([10]; 35 g/Ha): 30% | Preemergence herbicidal activity EPHHL ([11]; 35 g/Ha): 50% | Preemergence herbicidal activity XANST ([12]; 35 g/Ha): 85% | Postemergence herbicidal activity IPOHE ([13]; 15.6 ppm): 75% | Postemergence herbicidal activity AVEFA ([14]; 15.6 ppm): 50% | Postemergence herbicidal activity ABUTH ([15]; 15.6 ppm): 75% | Postemergence herbicidal activity STEME ([16]; 15.6 ppm): 95% | Postemergence herbicidal activity AMARE ([17]; 15.6 ppm): 90% | Postemergence herbicidal activity ALOMY ([18]; 15.6 ppm): 80% | Postemergence herbicidal activity SORBI ([19]; 15.6 ppm): 50% | Postemergence herbicidal activity CHEAL ([20]; 15.6 ppm): 95% | Postemergence herbicidal activity POLCO ([21]; 15.6 ppm): 90% | Postemergence herbicidal activity VIOTR ([22]; 15.6 ppm): 90% | Postemergence herbicidal activity SETFA ([23]; 15.6 ppm): 60% | Postemergence herbicidal activity XANST ([24]; 15.6 ppm): 90%

CCOc1cccc(C(F)(F)F)c1S(=O)(=O)Nc1nc2nc(OC)cc(OC)n2n1 [Compound 14, N-(5,7-dimethoxy[1,2,4]triazolo[1,5-a]-pyrimidin-2-yl)-2-ethoxy-6-(trifluoromethyl)benzenesulfonamide]
Preemergence herbicidal activity IPOHE ([1]; 17.5 g/Ha): 75% | Preemergence herbicidal activity AVEFA ([2]; 17.5 g/Ha): 60% | Preemergence herbicidal activity ECHCG ([3]; 17.5 g/Ha): 80% | Preemergence herbicidal activity ABUTH ([4]; 17.5 g/Ha): 85% | Preemergence herbicidal activity DIGSA ([5]; 17.5 g/Ha): 80% | Preemergence herbicidal activity AMARE ([6]; 17.5 g/Ha): 95% | Preemergence herbicidal activity ALOMY ([7]; 17.5 g/Ha): 80% | Preemergence herbicidal activity SORBI ([8]; 17.5 g/Ha): 85% | Preemergence herbicidal activity CHEAL ([9]; 17.5 g/Ha): 95% | Preemergence herbicidal activity SETFA ([10]; 17.5 g/Ha): 85% | Preemergence herbicidal activity EPHHL ([11]; 17.5 g/Ha): 85% | Preemergence herbicidal activity XANST ([12]; 17.5 g/Ha): 70% | Postemergence herbicidal activity IPOHE ([13]; 7.8 ppm): 80% | Postemergence herbicidal activity AVEFA ([14]; 7.8 ppm): 50% | Postemergence herbicidal activity ABUTH ([15]; 7.8 ppm): 90% | Postemergence herbicidal activity STEME ([16]; 7.8 ppm): 98% | Postemergence herbicidal activity AMARE ([17]; 7.8 ppm): 100% | Postemergence herbicidal activity ALOMY ([18]; 7.8 ppm): 70% | Postemergence herbicidal activity SORBI ([19]; 7.8 ppm): 70% | Postemergence herbicidal activity CHEAL ([20]; 7.8 ppm): 100% | Postemergence herbicidal activity POLCO ([21]; 7.8 ppm): 90% | Postemergence herbicidal activity VIOTR ([22]; 7.8 ppm): 90% | Postemergence herbicidal activity SETFA ([23]; 7.8 ppm): 90% | Postemergence herbicidal activity XANST ([24]; 7.8 ppm): 100%
